# Laboratory results as given in US6914045B2, “Glycopeptide antibiotics” (Wyeth Holdings Corporation, priority 2001, dated 2005).
# Legend:
# Experiment in all cases: in vitro antibacterial evaluation, MIC by broth dilution
# Format in all cases: cell-based
# Enterococcus sp. = conditions: broth dilution, 18 hours at 35° C.
# Method in brief: (§1)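 Read-out: the lowest concentration at which the test strain fails to grow. Serial dilutions (64-0.06 μg/mL) in Muller-Hinton II […], 5×10^5 CFU/mL inoculum, NCCLS M7-A2 procedure.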
# Staphylococcus sp. = conditions: broth dilution, 18 hours at 35° C.
# Method in brief: as §1
# Streptococcus sp. = conditions: broth dilution, 18 hours at 35° C.
# Method in brief: as §1
# Escherichia coli = conditions: 18 hours at 35° C.
smiles,measurement,setting,value
CC(c1ccccc1)C1NC(=O)CNC(=O)C(CO)NC(=O)C(C(O)C2CNC(=N)N2C2OC(CO)C(O)C(O)C2O)NC(=O)C(C(O)C2CNC(=N)N2)NC(=O)C(Cc2ccc(OC3OC(CO)C(OC4OC(COCc5ccc(Oc6ccccc6)cc5)C(O)C(O)C4O)C(O)C3O)cc2)NC1=O (stereo not shown) [Example 236],MIC Enterococcus avium (GC 4558),Enterococcus sp.,2 µg/mL
same,MIC Enterococcus faecalis (ATCC 29212),Enterococcus sp.,4 µg/mL
same,MIC Enterococcus faecalis (GC 2242),Enterococcus sp.,4 µg/mL
same,MIC Enterococcus faecalis (GC 2691),Enterococcus sp.,2 µg/mL
same,MIC Enterococcus faecalis (GC 3059),Enterococcus sp.,2 µg/mL
same,MIC Enterococcus faecalis (GC 4552),Enterococcus sp.,4 µg/mL
same,MIC Enterococcus faecalis (GC 4553),Enterococcus sp.,4 µg/mL
same,MIC Enterococcus faecalis (GC 4554),Enterococcus sp.,4 µg/mL
same,MIC Enterococcus faecalis (GC 6189),Enterococcus sp.,2 µg/mL
same,MIC Enterococcus faecium (GC 2243),Enterococcus sp.,4 µg/mL
same,MIC Enterococcus faecium (GC 4556),Enterococcus sp.,4 µg/mL
same,MIC Enterococcus faecium (GC 4557),Enterococcus sp.,2 µg/mL
same,MIC Enterococcus faecalis (ATCC 29212),Enterococcus sp.; strain ATCC 29212,4 µg/mL
same,MIC Enterococcus faecium (GC 2243),Enterococcus sp.; strain GC 2243,4 µg/mL
same,MIC Enterococcus faecalis (GC 4552),Enterococcus sp.; strain GC 4552,4 µg/mL
same,MIC Enterococcus faecalis (GC 4553),Enterococcus sp.; strain GC 4553,4 µg/mL
same,MIC Enterococcus faecalis (GC 4554),Enterococcus sp.; strain GC 4554,4 µg/mL
same,MIC Enterococcus faecium (GC 4556),Enterococcus sp.; strain GC 4556,4 µg/mL
same,MIC Enterococcus faecium (GC 4557),Enterococcus sp.; strain GC 4557,2 µg/mL
same,MIC Enterococcus avium (GC 4558),Enterococcus sp.; strain GC 4558,2 µg/mL
same,MIC Enterococcus faecalis (GC 6189),Enterococcus sp.; strain GC 6189,2 µg/mL
same,MIC Enterococcus faecalis (GC 2242),"Enterococcus sp.; inoculum 5×10^5 CFU/mL, strain GC 2242",4 µg/mL
same,MIC Enterococcus faecalis (GC 2691),"Enterococcus sp.; inoculum 5×10^5 CFU/mL, strain GC 2691",2 µg/mL
same,MIC Enterococcus faecalis (GC 3059),"Enterococcus sp.; inoculum 5×10^5 CFU/mL, strain GC 3059",2 µg/mL
same,MIC Coagulase Negative Staphylococcus (GC 4547),Staphylococcus sp.,2 µg/mL
same,MIC Coagulase Negative Staphylococcus (GC 4548),Staphylococcus sp.,0.5 µg/mL
same,MIC Coagulase Negative Staphylococcus (GC 4549),Staphylococcus sp.,0.5 µg/mL
same,MIC Coagulase Negative Staphylococcus (GC 4551),Staphylococcus sp.,2 µg/mL
same,MIC Coagulase Negative Staphylococcus (GC 6257),Staphylococcus sp.,1 µg/mL
same,MIC Staphylococcus aureus (ATCC 29213),Staphylococcus sp.,2 µg/mL
same,MIC Staphylococcus aureus (GC 1131),Staphylococcus sp.,2 µg/mL
same,MIC Staphylococcus aureus (GC 3051),Staphylococcus sp.,2 µg/mL
same,MIC Staphylococcus aureus (GC 3053),Staphylococcus sp.,2 µg/mL
same,MIC Staphylococcus aureus (GC 4541),Staphylococcus sp.,2 µg/mL
same,MIC Staphylococcus aureus (GC 4542),Staphylococcus sp.,4 µg/mL
same,MIC Staphylococcus aureus (GC 4544),Staphylococcus sp.,2 µg/mL
same,MIC Staphylococcus aureus (GC 4545),Staphylococcus sp.,2 µg/mL
same,MIC Staphylococcus aureus-SMITH (GC 4543),Staphylococcus sp.,2 µg/mL
same,MIC Staphylococcus haemolyticus (GC 4546),Staphylococcus sp.,2 µg/mL
same,MIC Staphylococcus aureus (ATCC 29213),Staphylococcus sp.; strain ATCC 29213,2 µg/mL
same,MIC Staphylococcus aureus (GC 1131),Staphylococcus sp.; strain GC 1131,2 µg/mL
same,MIC Staphylococcus aureus (GC 3051),Staphylococcus sp.; strain GC 3051,2 µg/mL
same,MIC Staphylococcus aureus (GC 3053),Staphylococcus sp.; strain GC 3053,2 µg/mL
same,MIC Staphylococcus aureus (GC 4541),Staphylococcus sp.; strain GC 4541,2 µg/mL
same,MIC Staphylococcus aureus (GC 4542),Staphylococcus sp.; strain GC 4542,4 µg/mL
same,MIC Staphylococcus aureus-SMITH (GC 4543),Staphylococcus sp.; strain GC 4543,2 µg/mL
same,MIC Staphylococcus aureus (GC 4544),Staphylococcus sp.; strain GC 4544,2 µg/mL
same,MIC Staphylococcus aureus (GC 4545),Staphylococcus sp.; strain GC 4545,2 µg/mL
same,MIC Staphylococcus haemolyticus (GC 4546),Staphylococcus sp.; strain GC 4546,2 µg/mL
same,MIC Coagulase Negative Staphylococcus (GC 4547),Staphylococcus sp.; strain GC 4547,2 µg/mL
same,MIC Coagulase Negative Staphylococcus (GC 4548),Staphylococcus sp.; strain GC 4548,0.5 µg/mL
same,MIC Coagulase Negative Staphylococcus (GC 4549),Staphylococcus sp.; strain GC 4549,0.5 µg/mL
same,MIC Coagulase Negative Staphylococcus (GC 4551),Staphylococcus sp.; strain GC 4551,2 µg/mL
same,MIC Coagulase Negative Staphylococcus (GC 6257),Staphylococcus sp.; strain GC 6257,1 µg/mL
same,MIC Streptococcus agalactiae (GC 4564),Streptococcus sp.,0.12 µg/mL
same,MIC Streptococcus pneumoniae (ATCC 6301),Streptococcus sp.,<0.06 µg/mL
same,MIC Streptococcus pneumoniae (GC 1894),Streptococcus sp.,<0.06 µg/mL
same,MIC Streptococcus pneumoniae (GC 4565),Streptococcus sp.,<0.06 µg/mL
same,MIC Streptococcus pyogenes (GC 4563),Streptococcus sp.,<0.06 µg/mL
same,MIC Streptococcus pneumoniae (ATCC 6301),"Streptococcus sp.; inoculum 5×10^5 CFU/mL, strain ATCC 6301",<0.06 µg/mL
same,MIC Streptococcus pneumoniae (GC 1894),"Streptococcus sp.; inoculum 5×10^5 CFU/mL, strain GC 1894",<0.06 µg/mL
same,MIC Streptococcus pyogenes (GC 4563),"Streptococcus sp.; inoculum 5×10^5 CFU/mL, strain GC 4563",<0.06 µg/mL
same,MIC Streptococcus agalactiae (GC 4564),"Streptococcus sp.; inoculum 5×10^5 CFU/mL, strain GC 4564",0.12 µg/mL
same,MIC Streptococcus pneumoniae (GC 4565),"Streptococcus sp.; inoculum 5×10^5 CFU/mL, strain GC 4565",<0.06 µg/mL
same,MIC Escherichia coli (ATCC 25922),Escherichia coli,>64 µg/mL
same,MIC Escherichia coli (GC 4559),Escherichia coli,>64 µg/mL
same,MIC Escherichia coli (GC 4560),Escherichia coli,1 µg/mL
